This is an account of results in patent US10111933B2, “Use of growth hormone fragments” (Metabolic Pharmaceuticals Pty Ltd, priority 2011, dated 2018).

Ends that are not written are not given here.

In series [1] the test system is contusion to the rectus femoris. In words: Case study: corked quad, hematoma. The note with it: transdermal 600 mcg per dose twice daily, total 20 ml. The class given is in vivo, human. The text has this:
The subject was a professional footballer. The athlete incurred a contusion to the rectus femoris adjacent to the central tendon. The MRI indicated an area of 2.0 cm area for the contusion. […] There was a minor degree of associated edema associated with the pathology. The MRI confirmed that there was fibre disruption but no true tear. The central tendon remained intact. The injury was an acute injury. The athlete identified discomfort on weight bearing movement and the mass was easily palpatable. Any hip flexion movement could induce discomfort and awareness of the injury. Although the muscle is not considered a dominant muscle in knee extension movement the affected area was painful and inducing discomfort with such work.
The subject undertook an intervention of AOD9604 (SEQ ID NO: 1) at 600 mcg per dose. They applied one ml twice daily. The transdermal application was at 600 mcg per ml. The total application was 20 ml.

Series [2] has as its system rabbit collagenase model of osteoarthritis. In words: Rabbit collagenase model of osteoarthritis, intra-articular administration. In kind it is in vivo, New Zealand White Rabbit. As to conditions: 4 weekly intra-articular injections of 0.25 mg, 9 weeks post collagenase. The procedure:
AOD9604 (SEQ ID NO: 1) was provided by Metabolic Pharmaceutical Pty Ltd.
Treatments groups: 32 rabbits were each given a 2 mg collagenase injection into their right knee joint, followed by a second injection 3 days later to induce osteoarthritis. After 4 weeks, the rabbits were divided into 4 groups of 8 for subsequent treatments.
Group 1 received 4 weekly injections of vehicle (disease control group).
Group 2 received 4 weekly injections of 6 mg of HA-hyuran-plus (HA positive control group).
Group 3 received 4 weekly injections of 0.25 mg of AOD9604 (AOD only group).
Group 4 received 4 weekly injections of both HA and AOD9604 (combination group).
Clinical observations were made by direct observation daily to assess lameness (as described in Kim et al., (2010) supra). At 9 weeks post initial collagenase injection the animals were euthanized.
Gross observation of the right and left knee joints was performed after dissection and scored for damage (as described in Kim et al., (2010) supra). Histological analysis of lateral and medial condyles from each joint was performed and scored.
A statistical analysis of the data was performed and the results are shown in FIGS. 13 (Group 1), 14 (Group 2), 15 (Group 3) and 16 (Group 4).

Series [3] has as its system osteoblast and osteoclast formation. As to conditions: cited from earlier work.
Series [4] has as its system Chondrocytes isolated from articular cartilage. As to the kind of experiment: Chondrocyte culture on collagen type II-coated filter, cartilage tissue formation. As to conditions: for toxicity to cells as determined by DNA content: 10 or 100 μg/ml, 2 weeks of treatment (3 weeks culture), FIG. 1. In kind it is cell-based, calf. The procedure:
Chondrocytes were isolated from articular cartilage obtained aseptically from calf metacarpal-carpal joints and seeded onto collagen type II-coated membrane inserts (Millipore™) (1.5×10^6 cells/12 mm diameter membrane). Chondrocytes were grown in Ham's F-12 supplemented with 5% fetal bovine serum (FBS) under standard culture conditions. After 5 days the serum was increased to 20%. Chondrocytes were then grown in the presence and absence of AOD9604 (SEQ ID NO: 1) (10 or 100 μg/ml) for 2 weeks (total culture time 3 weeks). Fresh AOD was added with each change of media.
The tissue was harvested and digested with papain (Sigma, 40 μg/ml) for 48 h at 65° C. DNA content was determined using the Hoechst 33258 dye binding assay (Polysciences) and fluorometry (excitation 365 nm, emission 458 nm). Proteoglycan content was determined by measuring the amount of sulphated glycosaminoglycans using the dimethylmethylene blue dye binding assay and spectrophotometry (525 nm). Collagen content was determined by measuring the hydroxyproline content of an aliquot of the papain digest hydrolyzed in 6N HCl for 18 h at 110° C. The hydroxyproline content was determined using the chloramine-T/Ehrlich's reagent assay and spectrophotometry (560 nm). The cellularity was quantified by measuring the DNA content using Hoescht 33258 dye binding assay (Polysciences) and fluorometry (excitation 365 nm, emission 458 nm).
All experiments were done three times and each condition was done in triplicate. The data was expressed as mean±SD. […]. Significance was determined using two way ANOVA followed by Tukey's post hoc test when multiple groups were being evaluated. T test was utilized if 2 groups were being compared. Significance was assigned at p values <0.05.

As to “YLRIVQCRSVEGSCGF (cysteine pairing not given here) [AOD9604]”, in series [1], the “pain or discomfort on resumed weight bearing” value is listed as “no immediate pain or discomfort”, the resolution of injury result is “resolved in two weeks”, the “return to weight bearing activity” value is given as “returned to full weight bearing activity” and the “subsequent MRI” value is on record as “return to full anatomical integrity”. Moreover, the “regeneration compared to control (histological analysis of condyles)” value in series [2] was “has regenerative power compared to control”. Besides, in series [3], the formation of osteoclasts entry was “without an increase” and the osteoblast formation entry was “increased”. Moreover, the “proteoglycan content of the tissue” value in series [4] (100 μg/ml, 3 weeks of culture, FIG. 2) was “increasing”. In addition, the “collagen content of the tissue” value in series [4] (100 μg/ml, 3 weeks of culture, FIG. 3) is recorded as “increasing”. In series [4], the “toxicity to cells as determined by DNA content” value is given as “not toxic”. Besides, the “toxicity to cells as determined by DNA content” value in series [4] (listed as AOD) is “does not have a toxic effect on cells”.
